In brackets after ≈: the same amount, converted by molar mass. Activity calls are given as the source filed them. No cut-off for these calls is given here.
Legend:
Type in all cases: functional
Saccharomyces cerevisiae = experiment: Microbiostatic activity against Saccharomyces cerevisiae ATCC 74212 after 48 hr by two fold microdilution technique
Candida albicans = experiment: Microbiostatic activity against Candida albicans ATCC 76615 after 48 hr by two-fold microdilution technique
Pseudomonas aeruginosa = experiment: Antibacterial activity against Pseudomonas aeruginosa ATCC 27853 after 24 hr by two-fold microdilution technique; conditions: ATCC 27853, 24 h
Proteus vulgaris = experiment: Antibacterial activity against Proteus vulgaris ATCC 6896 after 24 hr by two-fold microdilution technique; conditions: ATCC 6896, 24 h
Escherichia coli = experiment: Antibacterial activity against Escherichia coli ATCC 25922 after 24 hr by two-fold microdilution technique; conditions: ATCC 25922, 24 h
Micrococcus luteus = experiment: Antibacterial activity against Micrococcus luteus NCTC 2665 after 24 hr by two-fold microdilution technique; conditions: NCTC 2665, 24 h
Bacillus subtilis = experiment: Antibacterial activity against Bacillus subtilis ATCC 6633 after 24 hr by two fold microdilution technique; conditions: ATCC 6633, 24 h
Staphylococcus aureus = experiment: Antibacterial activity against Staphylococcus aureus ATCC 25923 after 24 hr by two fold microdilution technique; conditions: ATCC 25923, 24 h

O=C1CSc2c(Cl)cccc2N1CC1CCCO1 (stereo not given)
MIC (Saccharomyces cerevisiae; ATCC 74212, 48 h): 128 µg/mL (≈ 451 µM) | MIC (Candida albicans; ATCC 76615, 48 h): 128 µg/mL (≈ 451 µM) | MIC (Pseudomonas aeruginosa): 128 µg/mL (≈ 451 µM) | MIC (Proteus vulgaris): 64 µg/mL (≈ 226 µM) | MIC (Escherichia coli): 64 µg/mL (≈ 226 µM) | MIC (Micrococcus luteus): 32 µg/mL (≈ 113 µM) | MIC (Bacillus subtilis): 16 µg/mL (≈ 56.4 µM) | MIC (Staphylococcus aureus): 32 µg/mL (≈ 113 µM)

CCCCCCN1C(=O)CSc2cccc(Cl)c21
MIC (Saccharomyces cerevisiae): inactive | MIC (Candida albicans): inactive | MIC (Pseudomonas aeruginosa): 64 µg/mL (≈ 225 µM) | MIC (Proteus vulgaris): 32 µg/mL (≈ 113 µM) | MIC (Escherichia coli): 32 µg/mL (≈ 113 µM) | MIC (Micrococcus luteus): 32 µg/mL (≈ 113 µM) | MIC (Bacillus subtilis): 32 µg/mL (≈ 113 µM) | MIC (Staphylococcus aureus): 32 µg/mL (≈ 113 µM)

CCCCCCN1C(=O)CSc2ccc(Cl)cc21
MIC (Saccharomyces cerevisiae): inactive | MIC (Candida albicans): inactive | MIC (Pseudomonas aeruginosa): 64 µg/mL (≈ 225 µM) | MIC (Proteus vulgaris): 32 µg/mL (≈ 113 µM) | MIC (Escherichia coli): 32 µg/mL (≈ 113 µM) | MIC (Micrococcus luteus): 16 µg/mL (≈ 56.4 µM) | MIC (Bacillus subtilis): 32 µg/mL (≈ 113 µM) | MIC (Staphylococcus aureus): 32 µg/mL (≈ 113 µM)

O=C1CSc2ccc(Cl)cc2N1C1CCCCC1
MIC (Saccharomyces cerevisiae): inactive | MIC (Candida albicans; ATCC 76615, 48 h): 256 µg/mL (≈ 908 µM) | MIC (Pseudomonas aeruginosa): 128 µg/mL (≈ 454 µM) | MIC (Proteus vulgaris): 64 µg/mL (≈ 227 µM) | MIC (Escherichia coli): 64 µg/mL (≈ 227 µM) | MIC (Micrococcus luteus): 32 µg/mL (≈ 114 µM) | MIC (Bacillus subtilis): 64 µg/mL (≈ 227 µM) | MIC (Staphylococcus aureus): 32 µg/mL (≈ 114 µM)

O=C1CSc2cccc(Cl)c2N1Cc1ccccc1
MIC (Saccharomyces cerevisiae; ATCC 74212, 48 h): 128 µg/mL (≈ 442 µM) | MIC (Candida albicans): inactive | MIC (Pseudomonas aeruginosa): 32 µg/mL (≈ 110 µM) | MIC (Proteus vulgaris): 64 µg/mL (≈ 221 µM) | MIC (Escherichia coli): 16 µg/mL (≈ 55.2 µM) | MIC (Micrococcus luteus): 32 µg/mL (≈ 110 µM) | MIC (Bacillus subtilis): 32 µg/mL (≈ 110 µM) | MIC (Staphylococcus aureus): 32 µg/mL (≈ 110 µM)

O=C1CSc2c(Cl)cccc2N1C1CCCCC1
MIC (Saccharomyces cerevisiae; ATCC 74212, 48 h): 64 µg/mL (≈ 227 µM) | MIC (Candida albicans; ATCC 76615, 48 h): 128 µg/mL (≈ 454 µM) | MIC (Pseudomonas aeruginosa): 64 µg/mL (≈ 227 µM) | MIC (Proteus vulgaris): 32 µg/mL (≈ 114 µM) | MIC (Escherichia coli): 32 µg/mL (≈ 114 µM) | MIC (Micrococcus luteus): 32 µg/mL (≈ 114 µM) | MIC (Bacillus subtilis): 32 µg/mL (≈ 114 µM) | MIC (Staphylococcus aureus): 16 µg/mL (≈ 56.8 µM)

O=C1CSc2ccc(Cl)cc2N1Cc1ccccc1
MIC (Saccharomyces cerevisiae; ATCC 74212, 48 h): 64 µg/mL (≈ 221 µM) | MIC (Candida albicans; ATCC 76615, 48 h): 64 µg/mL (≈ 221 µM) | MIC (Pseudomonas aeruginosa): 32 µg/mL (≈ 110 µM) | MIC (Proteus vulgaris): 32 µg/mL (≈ 110 µM) | MIC (Escherichia coli): 32 µg/mL (≈ 110 µM) | MIC (Micrococcus luteus): 16 µg/mL (≈ 55.2 µM) | MIC (Bacillus subtilis): 32 µg/mL (≈ 110 µM) | MIC (Staphylococcus aureus): 16 µg/mL (≈ 55.2 µM)

O=C1CSc2c(Cl)cccc2N1Cc1ccccc1
MIC (Saccharomyces cerevisiae; ATCC 74212, 48 h): 64 µg/mL (≈ 221 µM) | MIC (Candida albicans; ATCC 76615, 48 h): 128 µg/mL (≈ 442 µM) | MIC (Pseudomonas aeruginosa): 32 µg/mL (≈ 110 µM) | MIC (Proteus vulgaris): 64 µg/mL (≈ 221 µM) | MIC (Escherichia coli): 64 µg/mL (≈ 221 µM) | MIC (Micrococcus luteus): 32 µg/mL (≈ 110 µM) | MIC (Bacillus subtilis): 64 µg/mL (≈ 221 µM) | MIC (Staphylococcus aureus): 64 µg/mL (≈ 221 µM)

O=C1CSc2cccc(Cl)c2N1C1CCCCC1
MIC (Saccharomyces cerevisiae; ATCC 74212, 48 h): 128 µg/mL (≈ 454 µM) | MIC (Candida albicans; ATCC 76615, 48 h): 64 µg/mL (≈ 227 µM) | MIC (Pseudomonas aeruginosa): 32 µg/mL (≈ 114 µM) | MIC (Proteus vulgaris): 32 µg/mL (≈ 114 µM) | MIC (Escherichia coli): 32 µg/mL (≈ 114 µM) | MIC (Micrococcus luteus): 16 µg/mL (≈ 56.8 µM) | MIC (Bacillus subtilis): 32 µg/mL (≈ 114 µM) | MIC (Staphylococcus aureus): 16 µg/mL (≈ 56.8 µM)

Clc1ccccc1C(c1ccccc1)(c1ccccc1)n1ccnc1 [CLOTRIMAZOLE]
MIC (Saccharomyces cerevisiae; ATCC 74212, 48 h): 4 µg/mL (≈ 11.6 µM) | MIC (Candida albicans; ATCC 76615, 48 h): 2 µg/mL (≈ 5.8 µM) | MIC (Pseudomonas aeruginosa): 512 µg/mL (≈ 1480 µM) | MIC (Proteus vulgaris): 512 µg/mL (≈ 1480 µM) | MIC (Escherichia coli): 512 µg/mL (≈ 1480 µM) | MIC (Micrococcus luteus): 512 µg/mL (≈ 1480 µM) | MIC (Bacillus subtilis): 512 µg/mL (≈ 1480 µM) | MIC (Staphylococcus aureus): 512 µg/mL (≈ 1480 µM)

CC1(C)S[C@@H]2[C@H](NC(=O)[C@H](N)c3ccccc3)C(=O)N2[C@H]1C(=O)O [AMPICILLIN]
MIC (Saccharomyces cerevisiae): inactive | MIC (Candida albicans): inactive | MIC (Pseudomonas aeruginosa): 128 µg/mL (≈ 366 µM) | MIC (Proteus vulgaris): 16 µg/mL (≈ 45.8 µM) | MIC (Escherichia coli): 16 µg/mL (≈ 45.8 µM) | MIC (Micrococcus luteus): 16 µg/mL (≈ 45.8 µM) | MIC (Bacillus subtilis): 1 µg/mL (≈ 2.86 µM) | MIC (Staphylococcus aureus): 2 µg/mL (≈ 5.72 µM)

CCCCCCN1C(=O)CSc2cc(Cl)ccc21
MIC (Saccharomyces cerevisiae; ATCC 74212, 48 h): 256 µg/mL (≈ 902 µM) | MIC (Candida albicans; ATCC 76615, 48 h): 128 µg/mL (≈ 451 µM) | MIC (Pseudomonas aeruginosa): 64 µg/mL (≈ 225 µM) | MIC (Proteus vulgaris): 64 µg/mL (≈ 225 µM) | MIC (Escherichia coli): 32 µg/mL (≈ 113 µM) | MIC (Micrococcus luteus): 64 µg/mL (≈ 225 µM) | MIC (Bacillus subtilis): 32 µg/mL (≈ 113 µM) | MIC (Staphylococcus aureus): 32 µg/mL (≈ 113 µM)

O=C1CSc2cc(Cl)ccc2N1Cc1ccccc1
MIC (Saccharomyces cerevisiae): inactive | MIC (Candida albicans): inactive | MIC (Pseudomonas aeruginosa): 64 µg/mL (≈ 221 µM) | MIC (Proteus vulgaris): 32 µg/mL (≈ 110 µM) | MIC (Escherichia coli): 32 µg/mL (≈ 110 µM) | MIC (Micrococcus luteus): 16 µg/mL (≈ 55.2 µM) | MIC (Bacillus subtilis): 64 µg/mL (≈ 221 µM) | MIC (Staphylococcus aureus): 64 µg/mL (≈ 221 µM)

O=C1CSc2cc(Cl)ccc2N1CC1CCCO1 (stereo not given)
MIC (Saccharomyces cerevisiae; ATCC 74212, 48 h): 128 µg/mL (≈ 451 µM) | MIC (Candida albicans; ATCC 76615, 48 h): 128 µg/mL (≈ 451 µM) | MIC (Pseudomonas aeruginosa): 64 µg/mL (≈ 226 µM) | MIC (Proteus vulgaris): 32 µg/mL (≈ 113 µM) | MIC (Escherichia coli): 32 µg/mL (≈ 113 µM) | MIC (Micrococcus luteus): 16 µg/mL (≈ 56.4 µM) | MIC (Bacillus subtilis): 64 µg/mL (≈ 226 µM) | MIC (Staphylococcus aureus): 32 µg/mL (≈ 113 µM)

CC(C)(O/N=C(\C(=O)N[C@@H]1C(=O)N2C(C(=O)[O-])=C(C[n+]3ccccc3)CS[C@H]12)c1csc(N)n1)C(=O)O [CEFTAZIDIME]
MIC (Saccharomyces cerevisiae): inactive | MIC (Candida albicans): inactive | MIC (Pseudomonas aeruginosa): 128 µg/mL (≈ 234 µM) | MIC (Proteus vulgaris): 4 µg/mL (≈ 7.32 µM) | MIC (Escherichia coli): 4 µg/mL (≈ 7.32 µM) | MIC (Micrococcus luteus): 16 µg/mL (≈ 29.3 µM) | MIC (Bacillus subtilis): 2 µg/mL (≈ 3.66 µM) | MIC (Staphylococcus aureus): 4 µg/mL (≈ 7.32 µM)

O=C1CSc2cc(Cl)ccc2N1C1CCCCC1
MIC (Saccharomyces cerevisiae; ATCC 74212, 48 h): 128 µg/mL (≈ 454 µM) | MIC (Candida albicans; ATCC 76615, 48 h): 64 µg/mL (≈ 227 µM) | MIC (Pseudomonas aeruginosa): 32 µg/mL (≈ 114 µM) | MIC (Proteus vulgaris): 32 µg/mL (≈ 114 µM) | MIC (Escherichia coli): 32 µg/mL (≈ 114 µM) | MIC (Micrococcus luteus): 16 µg/mL (≈ 56.8 µM) | MIC (Bacillus subtilis): 32 µg/mL (≈ 114 µM) | MIC (Staphylococcus aureus): 16 µg/mL (≈ 56.8 µM)

O=C1CSc2ccc(Cl)cc2N1CC1CCCO1 (stereo not given)
MIC (Saccharomyces cerevisiae; ATCC 74212, 48 h): 128 µg/mL (≈ 451 µM) | MIC (Candida albicans; ATCC 76615, 48 h): 64 µg/mL (≈ 226 µM) | MIC (Pseudomonas aeruginosa): 128 µg/mL (≈ 451 µM) | MIC (Proteus vulgaris): 64 µg/mL (≈ 226 µM) | MIC (Escherichia coli): 64 µg/mL (≈ 226 µM) | MIC (Micrococcus luteus): 32 µg/mL (≈ 113 µM) | MIC (Bacillus subtilis): 32 µg/mL (≈ 113 µM) | MIC (Staphylococcus aureus): 64 µg/mL (≈ 226 µM)

O=C1CSc2cccc(Cl)c2N1CC1CCCO1 (stereo not given)
MIC (Saccharomyces cerevisiae; ATCC 74212, 48 h): 128 µg/mL (≈ 451 µM) | MIC (Candida albicans; ATCC 76615, 48 h): 64 µg/mL (≈ 226 µM) | MIC (Pseudomonas aeruginosa): 64 µg/mL (≈ 226 µM) | MIC (Proteus vulgaris): 32 µg/mL (≈ 113 µM) | MIC (Escherichia coli): 32 µg/mL (≈ 113 µM) | MIC (Micrococcus luteus): 32 µg/mL (≈ 113 µM) | MIC (Bacillus subtilis): 32 µg/mL (≈ 113 µM) | MIC (Staphylococcus aureus): 32 µg/mL (≈ 113 µM)

CCCCCCN1C(=O)CSc2c(Cl)cccc21
MIC (Saccharomyces cerevisiae; ATCC 74212, 48 h): 64 µg/mL (≈ 225 µM) | MIC (Candida albicans; ATCC 76615, 48 h): 64 µg/mL (≈ 225 µM) | MIC (Pseudomonas aeruginosa): 32 µg/mL (≈ 113 µM) | MIC (Proteus vulgaris): 16 µg/mL (≈ 56.4 µM) | MIC (Escherichia coli): 32 µg/mL (≈ 113 µM) | MIC (Micrococcus luteus): 32 µg/mL (≈ 113 µM) | MIC (Bacillus subtilis): 16 µg/mL (≈ 56.4 µM) | MIC (Staphylococcus aureus): 32 µg/mL (≈ 113 µM)

CN[C@@H]1[C@H](O[C@H]2[C@H](O[C@H]3[C@H](O)[C@@H](O)[C@H](N=C(N)N)[C@@H](O)[C@@H]3N=C(N)N)O[C@@H](C)[C@]2(O)C=O)O[C@@H](CO)[C@H](O)[C@H]1O [STREPTOMYCIN]
MIC (Saccharomyces cerevisiae): inactive | MIC (Candida albicans): inactive | MIC (Pseudomonas aeruginosa): 2 µg/mL (≈ 3.44 µM) | MIC (Proteus vulgaris): 4 µg/mL (≈ 6.88 µM) | MIC (Escherichia coli): 4 µg/mL (≈ 6.88 µM) | MIC (Micrococcus luteus): 8 µg/mL (≈ 13.8 µM) | MIC (Bacillus subtilis): 32 µg/mL (≈ 55 µM) | MIC (Staphylococcus aureus): 2 µg/mL (≈ 3.44 µM)
